Data published in the supplement of paper PMC6045584.
± gives the standard deviation of the averaged measurements.

Columns and labels:
MK0752 = compound: O=C(O)CC[C@H]1CC[C@@](c2cc(F)ccc2F)(S(=O)(=O)c2ccc(Cl)cc2)CC1 [MK0752]; assay: surviving fraction relative to DMSO-only wells; higher = less growth inhibition; settings: exposure time: 5 days
Method in brief: (§1)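 Log-phase tumour cell lines, 250–500 cells per well in 384-well plates, received inhibitors at 0.5, 1, 5, 10, 50, 100, 500 and 1000 nM continuously for five days, starting 24 hours after seeding. Viability was quantified with CellTiter-Glo luminescence and normalised to the median of DMSO-only wells to give surviving fraction. Three screens were run per line, and a line stayed in only with replicate Pearson r >0.7 and median Z' >0.3.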

[1] = compound: O=C(NOCC1CC1)c1ccc(F)c(F)c1Nc1ccc(I)cc1Cl; assay: as above; settings: exposure time: 5 days
Method in brief: as §1

Test System | surviving fraction (MK0752; 0.5 nM) | surviving fraction (MK0752; 1 nM) | surviving fraction (MK0752; 5 nM) | surviving fraction (MK0752; 10 nM) | surviving fraction (MK0752; 50 nM) | surviving fraction (MK0752; 100 nM) | surviving fraction (MK0752; 500 nM) | surviving fraction (MK0752; 1000 nM) | surviving fraction ([1]; 0.5 nM) | surviving fraction ([1]; 1 nM) | surviving fraction ([1]; 5 nM) | surviving fraction ([1]; 10 nM) | surviving fraction ([1]; 50 nM) | surviving fraction ([1]; 100 nM) | surviving fraction ([1]; 500 nM) | surviving fraction ([1]; 1000 nM)
22RV1 PROSTATE | 1.08 ± 0.069 | 1.1 ± 0.012 | 1.09 ± 0.021 | 1.04 ± 0.058 | 1.07 ± 0.092 | 1.11 ± 0.07 | 1.09 ± 0.044 | 1.08 ± 0.026 | 0.93 ± 0.034 | 1.03 ± 0.044 | 0.917 ± 0.04 | 0.851 ± 0.038 | 0.714 ± 0.068 | 0.6767 ± 0.0032 | 0.631 ± 0.037 | 0.526 ± 0.019
93VU HEADNECK | 1.19 ± 0.15 | 1.25 ± 0.054 | 1.14 ± 0.041 | 1.23 ± 0.086 | 1.16 ± 0.016 | 1.23 ± 0.088 | 1.13 ± 0.051 | 1.18 ± 0.1 | 0.859 ± 0.026 | 0.873 ± 0.089 | 0.979 ± 0.061 | 0.828 ± 0.051 | 0.785 ± 0.074 | 0.751 ± 0.037 | 0.417 ± 0.036 | 0.311 ± 0.097
143B BONE | 1 ± 0.028 | 1.04 ± 0.03 | 1.022 ± 0.0064 | 1.05 ± 0.015 | 1.02 ± 0.044 | 1.05 ± 0.026 | 1.01 ± 0.02 | 1.06 ± 0.023 | 0.887 ± 0.14 | 0.98 ± 0.0057 | 0.97 ± 0.018 | 1 ± 0.037 | 0.857 ± 0.13 | 0.957 ± 0.037 | 0.841 ± 0.028 | 0.542 ± 0.021
A549 LUNG | 1.02 ± 0.053 | 1.03 ± 0.043 | 1.06 ± 0.059 | 1.02 ± 0.062 | 1.06 ± 0.054 | 1.09 ± 0.061 | 1.07 ± 0.063 | 1.1 ± 0.038 | 0.931 ± 0.014 | 0.95667 ± 0.00058 | 0.947 ± 0.017 | 0.956 ± 0.019 | 0.964 ± 0.027 | 1.01 ± 0.02 | 0.93 ± 0.013 | 0.886 ± 0.015
ASKA SYNOVIAL | 1.12 ± 0.023 | 1.16 ± 0.02 | 1.24 ± 0.038 | 1.22 ± 0.025 | 1.22 ± 0.11 | 1.23 ± 0.1 | 1.14 ± 0.087 | 1.14 ± 0.017 | 0.658 ± 0.015 | 1.08 ± 0.052 | 1.08 ± 0.049 | 1.14 ± 0.035 | 0.847 ± 0.019 | 1.11 ± 0.073 | 0.973 ± 0.034 | 0.903 ± 0.029
BT20 BREAST | 1.16 ± 0.11 | 1.03 ± 0.11 | 1.09 ± 0.12 | 1.1 ± 0.17 | 1.03 ± 0.17 | 0.941 ± 0.19 | 0.914 ± 0.096 | 0.829 ± 0.19 | 0.994 ± 0.099 | 1.06 ± 0.055 | 1.03 ± 0.091 | 0.962 ± 0.13 | 0.905 ± 0.12 | 0.928 ± 0.055 | 0.864 ± 0.061 | 0.849 ± 0.069
BT549 BREAST | 1.08 ± 0.14 | 1.09 ± 0.14 | 1.1 ± 0.18 | 1.11 ± 0.15 | 0.986 ± 0.1 | 1.04 ± 0.07 | 0.89 ± 0.095 | 1.03 ± 0.075 | 1.03 ± 0.11 | 1.07 ± 0.088 | 1.08 ± 0.23 | 1.14 ± 0.03 | 1.15 ± 0.062 | 1.21 ± 0.044 | 1.3 ± 0.067 | 1.23 ± 0.16
CADOES1 SOFT TISSUE | 0.976 ± 0.09 | 1.02 ± 0.13 | 0.994 ± 0.073 | 0.953 ± 0.054 | 1.02 ± 0.14 | 0.849 ± 0.041 | 0.801 ± 0.086 | 0.931 ± 0.11 | 0.913 ± 0.11 | 0.844 ± 0.075 | 0.894 ± 0.15 | 0.86 ± 0.081 | 0.903 ± 0.061 | 0.918 ± 0.1 | 0.875 ± 0.14 | 0.746 ± 0.14
CAL51 BREAST | 1.02 ± 0.015 | 0.995 ± 0.035 | 0.972 ± 0.027 | 0.967 ± 0.064 | 1.05 ± 0.013 | 0.992 ± 0.038 | 1.02 ± 0.036 | 1.02 ± 0.041 | 0.975 ± 0.021 | 1 ± 0.032 | 0.981 ± 0.055 | 0.993 ± 0.017 | 0.934 ± 0.058 | 0.944 ± 0.042 | 0.878 ± 0.032 | 0.8495 ± 0.0082
CAL120 BREAST | 1.009 ± 0.0055 | 1 ± 0.047 | 1.025 ± 0.0088 | 1.01 ± 0.024 | 1.03 ± 0.018 | 1.07 ± 0.028 | 1.023 ± 0.0088 | 1 ± 0.054 | 0.928 ± 0.018 | 0.9302 ± 0.008 | 0.966 ± 0.025 | 0.908 ± 0.015 | 0.899 ± 0.036 | 0.898 ± 0.015 | 0.8322 ± 0.0043 | 0.805 ± 0.01
CASKI CERVIX | 0.896 ± 0.038 | 0.973 ± 0.061 | 1.01 ± 0.047 | 0.952 ± 0.03 | 1.08 ± 0.045 | 1.09 ± 0.061 | 0.987 ± 0.054 | 0.943 ± 0.057 | 0.931 ± 0.018 | 0.944 ± 0.038 | 0.95 ± 0.051 | 0.881 ± 0.032 | 0.766 ± 0.022 | 0.685 ± 0.045 | 0.474 ± 0.013 | 0.454 ± 0.02
CHLA90 AUTONOMIC GANGLIA | 0.984 ± 0.034 | 1.05 ± 0.039 | 1.05 ± 0.04 | 1.009 ± 0.0045 | 1.01 ± 0.026 | 0.952 ± 0.044 | 1.1 ± 0.037 | 1.09 ± 0.018 | 0.469 ± 0.022 | 0.987 ± 0.003 | 0.825 ± 0.05 | 0.894 ± 0.036 | 0.478 ± 0.044 | 0.763 ± 0.028 | 0.662 ± 0.044 | 0.69 ± 0.015
CME SYNOVIAL | 1.27 ± 0.23 | 1.31 ± 0.15 | 1.29 ± 0.09 | 1.39 ± 0.029 | 1.46 ± 0.22 | 1.47 ± 0.2 | 1.24 ± 0.11 | 1.34 ± 0.14 | 0.301 ± 0.075 | 1.11 ± 0.064 | 1.04 ± 0.15 | 1.27 ± 0.12 | 0.584 ± 0.07 | 1.22 ± 0.17 | 0.993 ± 0.16 | 1.02 ± 0.27
COLO320DM LARGE INTESTINE | 1.09 ± 0.11 | 1.18 ± 0.065 | 1.16 ± 0.1 | 1.18 ± 0.049 | 1.14 ± 0.01 | 1.2 ± 0.087 | 1.17 ± 0.096 | 1.25 ± 0.27 | 0.544 ± 0.018 | 1.09 ± 0.032 | 0.98 ± 0.094 | 1.09 ± 0.094 | 0.747 ± 0.053 | 1.15 ± 0.029 | 1.11 ± 0.063 | 1.15 ± 0.043
DU4475 BREAST | 1.04 ± 0.097 | 0.997 ± 0.16 | 0.927 ± 0.19 | 1.03 ± 0.21 | 0.967 ± 0.22 | 0.911 ± 0.26 | 0.976 ± 0.35 | 1.05 ± 0.38 | 0.859 ± 0.24 | 0.791 ± 0.12 | 0.794 ± 0.29 | 0.674 ± 0.064 | 0.49 ± 0.15 | 0.199 ± 0.11 | 0.0277 ± 0.0074 | 0.0263 ± 0.0078
H23 LUNG | 1.064 ± 0.004 | 1.11 ± 0.053 | 1.1 ± 0.061 | 1.07 ± 0.063 | 1.104 ± 0.0052 | 1.17 ± 0.1 | 1.103 ± 0.0038 | 1.13 ± 0.058 | 0.922 ± 0.025 | 0.931 ± 0.027 | 0.834 ± 0.0027 | 0.741 ± 0.062 | 0.484 ± 0.029 | 0.413 ± 0.01 | 0.341 ± 0.0071 | 0.342 ± 0.0067
